Key:
[1] = system: cherry tomato plant “petite”; assay: Hydroponic growth of cherry tomato with 0.05 or 0.5 mM sugar, 40 days; format: in vivo; settings: until 40 days; for stem length, rank among 7 treated plots: 0.05 mM
Procedure: Further, on Dec. 18, 2003, a cherry tomato plant “petite” was transplanted for permanent planting to a hydroponic apparatus, and a total of 7 treated plots in which a plot without addition was added to 6 treated plots with the use of a nutrient solution supplemented with 0.05 mM or 0.5 mM D-psicose, D-fructose or mannitol were prepared. A survey was carried out with regard to the growth until 40 days after the permanent planting. As a result, the stem length was the shortest in the cases of 0.05 mM D-psicose and 0.05 mM D-fructose. Although a significant difference in the stem diameter was not observed among treated plots, however, a tendency was observed that the stem was slightly thinner in the treated plot of any of the sugars at a high concentration. A significant difference in the number of leaves was not observed among treated plots.

[2] = system: stress/hormone response genes; format: in vivo, Lotus japonicus; settings: for activation of gene group that responds to pathogenic bacteria and environmental stresses: 5 mM in medium, first one week
Procedure: A pattern of induction of a gene in the case where D-psicose was added to a medium for Lotus japonicus was examined by an experiment using a cDNA array.
Lotus japonicus was germinated from a seed and cultivated in an L&B medium (hydroponic culture medium). When the seed was germinated, Mesorhizobium loti was also inoculated. This condition was applied to both a control plot and a plot of D-psicose addition. With regard to the array, a microarray on which 14,000 clones were immobilized by using a Lotus japonicus cDNA array was used. After test plants were germinated, they were cultivated with an L&B medium supplemented with D-psicose or without addition for 1 week in a growth cabinet (22° C., 30,000 Lux). After total RNA was extracted from the plant body, it was labeled with ^33P in the process where it was converted to cDNA, and then hybridization was carried out. Reading was carried out using STORM 850 and analysis was carried out with Array Vision.

[3] = system: cherry tomato plant “mini carol”; assay: Hydroponic growth of cherry tomato with 0.05 or 0.5 mM sugar, 10 days; format: in vivo
Procedure: Subsequently, a cherry tomato plant “mini carol” was transplanted for permanent planting to a hydroponic apparatus, and a total of 7 treated plots in which a plot without addition (control plot) was added to 6 treated plots with the use of a nutrient solution supplemented with 0.05 mM or 0.5 mM D-psicose, D-fructose or mannitol were prepared. A survey was carried out with regard to the growth at 10 days after the permanent planting. […] The stem diameter was the smallest in the case of 0.5 mM D-psicose. The number of leaves was the smallest in the case of 0.5 mM D-psicose and 0.5 mM mannitol. The root length was the smallest in the case of 0.5 mM psicose.

[4] = system: tomato (Home Momotaro), sunny lettuce (Red Wave), morning glory (Tairin Zaki Kongo); assay: Seed germination, short-time and continuous treatment (Experiment 2); format: in vivo; settings: continuous treatment with 1%
Procedure: In order to clarify an effect of a short-time treatment, 50 seeds of Salsola komarovii, tomato (Home Momotaro) and sunny lettuce (Red Wave), and 20 seeds of morning glory (Tairin Zaki Kongo) were immersed in any of deionized water, 1% D-psicose, 1% D-allose and 1% L-galactose for 24 hours (25° C., dark), respectively, then, they were lightly washed with deionized water. Then, the seeds were sown in a dish with a diameter of 9 cm having a filter paper placed therein, and germinated under the same condition by poring 5 to 10 ml of deionized water therein. Further, for the comparison, a continuous treatment with 1% D-psicose was carried out in accordance with the same procedure.

[5] = system: Fusarium oxysporum, Glomerella cingulata, Verticillium dahliae and Botrytlis cinerea; assay: Mycelial elongation of plant pathogenic bacteria on agar with rare sugar; format: cell-based; settings: 0.05% (w/v) in agar medium, 23° C., 7 days
Procedure: By using as targets, Fusarium oxysporum, Glomerella cingulata, Verticillium dahliae and Botrytlis cinerea, which are typical plant pathogenic bacteria, an effect of a rare sugar on mycelial elongation was examined.
As the test bacterial strains, IFO 31213 strain, IFO 6425 strain, IFO 9765 strain and IFO 9760 strain were used.
After the cultivation, the length of the extending mycelium was measured.

[6] = system: strawberry plant (variety: “Sachinoka”); assay: Spraying of sugar solution during soilless culture of strawberry; format: in vivo; settings: 0.2% (w/v) sprayed weekly
Procedure: In the process of cultivation of strawberry, an effect of spraying D-psicose was examined.
A strawberry plant (variety: “Sachinoka”) was used in an experiment. Strawberry seedlings were transplanted for permanent planting to a mixed culture medium of rockwool and peat moss, and then, by using Otsuka A prescription hydroponic nutrient solution, soilless culture was carried out in a glass house. During the cultivation, on a weekly basis, water, a 0.2% (w/v) D-glucose solution or a 0.2% (w/v) D-psicose solution was sprayed onto the whole plant. As for the number of strawberry plants, 17, 19 and 18 plants were used for the groups, respectively, and permanent planting was carried out on Sep. 24, 2004, and spraying was started from Oct. 22, 2004. A survey was carried out with regard to the growth conditions, the yield of fruits, the quality of fruits and the like by Mar. 7, 2005.

[7] = system: strawberry plant (variety: “smile ruby”); assay: Growth of strawberry seedlings in tissue culture medium with sugar; format: in vivo; settings: increased (high) concentration in medium
[8] = system: Arabidopsis thaliana Lan dsberg erecta (LER); assay: Germination of Arabidopsis thaliana with 8 ketoses; format: in vivo; settings: 100 mM aqueous solution
Procedure: An effect of 8 types of ketoses on germination of Arabidopsis thaliana LER series which was an experimental plant was examined.
Two sheets of filter paper were placed in a dish with a diameter of 3.5 cm, and 30 seeds of Arabidopsis thaliana Lan dsberg erecta (LER) were sown per dish, and 0.5 mL of a treatment liquid was poured therein. Then, the dishes were placed in an environment control chamber under the condition of a constant temperature of 25° C. and 24-hour day length (fluorescent lamp, 70 μmol/m^2/s). After the sowing, a survey was carried out with regard to the number of seeds that germinated at 24-hour interval. As the treatment liquid, 100 mM, 10 mM and 1 mM aqueous solutions of any of D-fructose, D-psicose, D-tagatose, D-sorbose, L-fructose, L-psicose, L-tagatose and L-sorbose, and distilled water were used. The procedure was repeated three times for the respective treatment liquids.

O=C(CO)[C@@H](O)[C@H](O)[C@H](O)CO [D-fructose, reference compound]
stem length, rank among 7 treated plots [1]: the shortest | activation of gene group that responds to pathogenic bacteria and environmental stresses [2]: not observed | stem length, rank among 7 treated plots ([3]; 0.5 mM): the longest

O=C(CO)[C@H](O)[C@H](O)[C@H](O)CO [D-psicose]
germination [4]: inhibited | inhibitory effect on mycelial elongation [5]: has an effect on inhibiting mycelial elongation | stem length, rank among 7 treated plots [1]: the shortest | underground part weight, rank among 7 treated plots ([1]; 0.5 mM): the smallest | activation of gene group that responds to pathogenic bacteria and environmental stresses [2]: activated | expression of a gene group regulated by plant hormones such as auxin ([2]; about 0.1 mM in medium): an increase or a decrease in the expression | Expression ratio (D-psicose/water): auxin response factor 6 (ARF6) ([2]; psicose: 0.1 mM, 1 week): 2.5 | Expression ratio (D-psicose/water): auxin-binding protein T85 precursor (ABP) ([2]; psicose: 0.1 mM, 1 week): 2.4 | Expression ratio (D-psicose/water): chitinase ([2]; psicose: 0.1 mM, 1 week): 2.2 | Expression ratio (D-psicose/water): chitinase (EC 3.2.1.14) class II ([2]; psicose: 0.1 mM, 1 week): 2.2 | Expression ratio (D-psicose/water): glycine-rich RNA-binding, abscisic acid-inducible protein ([2]; psicose: 0.1 mM, 1 week): 2.5 | Expression ratio (D-psicose/water): metal stress-regulated protein SR7 ([2]; psicose: 0.1 mM, 1 week): 2.4 | Expression ratio (D-psicose/water): pathogen-inducible alpha-dioxygenase ([2]; psicose: 0.1 mM, 1 week): 2.4 | Expression ratio (D-psicose/water): putative WD-40 repeat protein ([2]; psicose: 0.1 mM, 1 week): 2.2 | Expression ratio (D-psicose/water): turgor-responsive protein 26G ([2]; psicose: 0.1 mM, 1 week): 2.3 | Expression ratio (D-psicose/water): ACC oxidase ([2]; psicose: 5 mM, 1 week): 5.1 | Expression ratio (D-psicose/water): PDR5-like ABC transporter ([2]; psicose: 5 mM, 1 week): 10.8 | Expression ratio (D-psicose/water): PR-10-1 protein ([2]; psicose: 5 mM, 1 week): 5.5 | Expression ratio (D-psicose/water): auxin response factor like protein ([2]; psicose: 5 mM, 1 week): 5.6 | Expression ratio (D-psicose/water): chalcone synthase ([2]; psicose: 5 mM, 1 week): 5.4 | Expression ratio (D-psicose/water): class I chitinase ([2]; psicose: 5 mM, 1 week): 13.2 | acidity in the fruit [6]: improvement | content of vitamin C in the fruit [6]: improvement | flower-bud formation [6]: promotion | growth and total yield [6]: no significant difference | harvesting time [6]: acceleration | growth when the concentration added to the medium was increased [7]: the growth thereof was delayed | stem length, rank among 7 treated plots ([3]; 0.05 mM): the second longest | fresh and dry aerial part weights, rank among 7 treated plots ([3]; 0.5 mM): the smallest | number of leaves, rank among 7 treated plots ([3]; 0.5 mM): the smallest | root length, rank among 7 treated plots ([3]; 0.5 mM): the smallest | stem diameter, rank among 7 treated plots ([3]; 0.5 mM): the smallest | stem length, rank among 7 treated plots ([3]; 0.5 mM): the shortest | inhibition of germination [8]: clearly inhibited

O=C[C@H](O)[C@H](O)[C@H](O)[C@H](O)CO [D-allose]
inhibitory effect on mycelial elongation [5]: has an effect on inhibiting mycelial elongation | growth when the concentration added to the medium was increased [7]: the growth thereof was delayed

Source: patent publication US8017828B2, “Utilization of rare sugars in plant or microorganism” (Shikoku Research Institute Incorporated, priority 2004, dated 2011)
